Measurements from patent US20180135010A1, “ISOLATION AND LONG-TERM CULTURING OF ESTROGEN RECEPTOR-POSITIVE HUMAN BREAST EPITHELIAL CELLS” (University of Copenhagen, priority 2015, published 2018).

Legend:
[1] = tested on: hTERT/shp16 transduced ER^pos HBEC; test: qRT-PCR of ESR and PGR after 7 days exposure to inhibitors; type: cell-based, human; conditions: RepSox alone versus combination with SB431542
Protocol: FIG. 12: PCR analysis of human estrogen receptor signaling. (a) Using a commercially available PCR array containing 84 genes involved in ER activation and its response, qRT-PCR was conducted with RNA samples of ER^pos HBEC with or without TGFβ[…]. Among them, 20 genes (some of which are labeled in the plot) were highly expressed in the presence of TGFβ[…]. […] The black line indicates no difference between samples, while the pink lines indicate a two-fold change in gene expression. Two biological replicates were run I qRT-PCT with duplicates of each. […] Bars indicate the fold difference of the relative gene expression and error bars represent SD of triplicates in qPCR.

CD166^high-derived cells = test: Long-term growth / population doublings on passaging; type: cell-based, human; conditions: in the absence of RepSox (SB431542 alone)
Excerpt: For growth experiments cultures initially seeded at 6400 cells/cm^2 and grown for fifteen days in primary culture in TGFβR2i or with SB431542 alone. Next, the cultures were trypsinized and seeded at 4000 cells/cm^2 in triplicate cultures, and subsequently passaged at the same density before the cultures reached confluency. Parallel cultures were stained to assess Ks20.8, ER and PR expression status. The number of cells was quantified manually using a counting chamber. […] Population doublings were calculated as n=3.32(log UCY—log 1)+X, where n=population doubling, UCY=cell yield, 1=inoculum number, X=population doubling rate of inoculum. To determine whether continuous TGFβR2i culture was needed to sustain ER and K8 expression, cells in the sixth passage were switched to FAD2 and the number of ER^pos cells (n=3×100) was compared to parallel TGFβR2i cultures at day three and five.

ER^pos cells [2] = test: Proliferative response to estrogen without EGF; type: cell-based, human; conditions: early passage cultures, 10^−8 M β-estradiol versus vehicle, four days
Protocol: To test the proliferative response to estrogen, ER^pos cells in TGFβR2i culture were seeded in second passage with 4000 cells/cm^2 in TGFβR2i with 25 μM RepSox and without EGF, supplemented with estrogen (10^−8 M, β-estradiol, E2758, Sigma-Aldrich) and cultured for up to 13 days with medium change every other day. A primary culture from another biopsy (P959) was cultured 27 days in the presence of estrogen and without EGF before splitting. The cells were passaged at 4000 cells/cm^2 in triplicate cultures with estrogen or vehicle (96% ethanol). At day four the cultures were trypsinized and quantified using a counting chamber.

ER^pos cells [3] = test: Response to estrogen on confluent fibroblast feeders; type: cell-based, human; conditions: on confluent fibroblast feeders in TGFβR2i, day eight
Protocol: To assess whether the response of ER^pos cells to estrogen was modulated by the presence of fibroblasts, second or third passage ER^pos cells, with or without omission of EGF in the previous passage, were plated at a density of 5600 cells/cm^2 on confluent fibroblast feeders in triplicate culture. The following day, the culture medium was switched to TGFβR2i with estrogen or vehicle. […] At day eight, the cultures were trypsinized and the total cell number was quantified. Whether a continuous lack of EGF influenced the response to estrogen was tested in a similar set-up, where EGF was omitted from the medium during the entire experimental period.

ER^pos cells [4] = test: qRT-PCR of PGR and GREB1 after estrogen; type: cell-based, human; conditions: long-term exposure to estrogen
ER^pos cells [5] = test: PR protein staining after estrogen; type: cell-based, human; conditions: 10^−8 M β-estradiol, absence of EGF
Protocol: Cryostat sections, smears of sorted cells and monolayer cultures were prepared and stained by immunoperoxidase or immunofluorescence as previously described (Petersen et al. 1988, Villadsen et al. 2007, Rønnov-Jessen et al. 1992). Cellular smears for ER staining were fixed in 10% formalin for 10 min, followed by 5 min in ice-cold methanol:acetone (1:1), and incubated over night with anti-ER (Sp1, 1:10) at 4° C., followed by incubation for 30 min with Alexa Fluor 568 goat-anti rabbit IgG (Invitrogen). […] Immunofluorescence and peroxidase stainings were evaluated, quantified and photographed using a laser-scanning microscope (LSM 510; Carl Zeiss Microlmaging, Inc.) and brightfield microscopes (Laborlux S or DM5500B, Leica), respectively. For quantification of ER, K8, K19 and p63, nuclei were counterstained with hematoxylin and counted in randomly selected fields using an ocular grid and given as the percentage of stained cells of a total of 1000 cells evaluated with a 25 times objective.
As an ultimate test for a physiologically relevant ER expression we decided to assess the effect of added cognate ligand, i. e. estrogen (β-estradiol). […] Early passage cultures were exposed to estrogen or vehicle, and after four days the cell number was quantified. […]

luminal cells = test: Screening assay for normal morphogenic behavior (co-culture on fibroblast feeder in BBMYAB); type: cell-based, human; conditions: E2 10^−8 M
Excerpt: Within two weeks luminal cells grow up from single cells to form polarized structures, either comprising luminal cells only or luminal cells surrounded by a layer of myoepithelial cells, reminiscent of their organization in vivo.

CD166^high cells = test: Induction of ER, K8 and luminal genes by TGF-β signaling inhibitors (qPCR, Western blotting, staining); type: cell-based, human
Protocol: To test the specificity of the effect of TGFβ[…], in some experiments SB431542 alone or the double concentration of SB431542 was used instead of TGFβ[…] or RepSox was replaced by another TGF-β type I receptor activin receptor-like kinase ALKS inhibitor, SD208 (1 μM, Tocris Bioscience). The vehicle, dimethyl sulfoxide (Sigma Aldrich), was included in all experiments added in appropriate concentrations for control cultures. Gentamycin (50 μg/ml, Biological Industries) was added to the cultures for one week after sorting, otherwise antibiotics were not included. […] In order to quantify cDNA concentration represented by cycle threshold (Ct) values, Cts were determined at the initial period of exponential amplification in triplicates and the different PCR runs were adjusted by inter-run calibrators (Bio-Rad CFX manager 3.0). Each gene expression level was to the mean of four reference gene expressions (GAPDH, HPRT1, TBP, and TFRC). The qRT-PCR data were then visualized as a heatmap using the statistical programi R or as a bar graph using the values calculated by the 2^-ΔΔCt method (Livak et al., 2001). […] Whole cell lysates were prepared for extraction by incubation in RIPA lysis buffer for 30 min at 4° C. with protease inhibitor cocktail (P8340, Sigma) and phosphatase inhibitor cocktail (Sigma, P5726). Protein were separated by a 4 12% Novex® Bis-Tris pre-cast polyacrylamide gradient gel (Life technologies) and transferred to a PVDF membrane using iBlot® dry blotting system (Life technologies). Molecular weight was indicated by using a pre-stained protein ladder (SM0671, Fermentas). […] Secondary antibodies conjugated with horseradish peroxidase (DAKO) were incubated for one hour at room temperature. Western blots were visualized using enhanced chemiluminescence solution ([…] 32106, Thermo Scientific) and a chemi-luminescence imager (Amersham Image 600, GE Healthcare life sciences).

ER and PR = test: Substitution of EGF with amphiregulin in the culture medium; type: cell-based; conditions: EGF substituted with amphiregulin

Question: With Cc1cccc(-c2[nH]ncc2-c2ccc3ncccc3n2)n1 [RepSox] as the molecule, how does the “induction of ER or PR” value [1] read?
Answer: not as effective in inducing ER or PR as in combination with SB431542

Question: And the expansion on passaging (CD166^high-derived cells)?
Answer: could not be expanded beyond fourth passage

Question: How did the cell number (ER^pos cells [2]) turn out when β-estradiol [estrogen] was run?
Answer: significantly higher cell numbers

Question: And the cell number (ER^pos cells [3])?
Answer: significant increase in cell number

Question: And the “expression of PGR and GREB1” value (ER^pos cells [4])?
Answer: increased expression of PGR and GREB1

Question: And the PR protein expression (ER^pos cells [5])?
Answer: higher focal expression of PR protein

Question: What about the epithelial colony size (luminal cells) of the same molecule?
Answer: larger epithelial colonied are formed

Question: And the “estrogen receptor and progesterone receptor expression” value (luminal cells)?
Answer: down-regulation of its receptor and induction of the downstream progesterone receptor

Question: How did the “induction of K8 and ER” value (CD166^high cells; RepSox replaced by SD208) turn out when Fc1ccc(Cl)cc1-c1nc(Nc2ccncc2)c2nccnc2n1 [SD208] was run?
Answer: insufficient to induce K8 and ER

Question: How did the “ER expression at the mRNA level” value (CD166^high cells; SB431542 alone in FAD2) turn out when NC(=O)c1ccc(-c2nc(-c3ccc4c(c3)OCO4)c(-c3ccccn3)[nH]2)cc1 [SB431542] was run?
Answer: capable of inducing increased expression of ER at the mRNA level

Question: What about the “induction of K8 and ER” value (CD166^high cells; twice the concentration of SB431542 instead of TGFβR2i) of the same molecule?
Answer: insufficient to induce K8 and ER

B1: amphiregulin: EGF-like compound substituted for EGF in the culture medium (protein, UniProt P15514 101-187, looked up)
Amphiregulin: SVRVEQVVKPPQNKTESENTSDKPKRKKKGGKNGKNRRNRKKKNPCNAEFQNFCIHGECKYIEHLEAVTCKCQQEYFGERCGEKSMK
modifications: Amphiregulin
notes: EGF-like compound substituted for EGF in the culture medium
Question: For B1, which “level of ER and PR” value (ER and PR) is on record?
Answer: a higher level of ER and PR is observed
